Each block holds one substance with its values, some of them ahead of it. Where no end group is shown, it is not given here.
Legend:
[1] = system: HEK293 cells; test: In vitro luciferase expression in HEK293 (Example 1); format: cell-based, human
Procedure: (§1) In vitro luciferase and GFP expression: HEK 293 and HepG2 cells were maintained in Dulbecco's modified Eagle's medium (DMEM) and 4T1 cells were cultured in RPMI 1640 growth medium at 37° C. with 5% CO2. All growth media used were completed with 10% fetal bovine serum, 100 μg/mL of streptomycin and 100 U/ml of penicillin.
(§2) One day before transfection, cells were seeded at a density that depended on the cell line and type of experiments. For the luciferase transfection assay, 0.5 mL of medium containing 5-8×10^4 cells were seeded into each well of a 24-well plate, while 1.0 mL of medium containing 1.8-2.0×10^5 cells were pipetted into each well of a 12-well plate for GFP expression. Peptide/DNA complexes were formed at various N/P ratios in 10 mM PBS (pH 7.0) by dripping equivolume solutions of peptide into DNA. The mixture was then vortexed for ˜10 seconds and left to stand for at least 30 minutes before usage. Meanwhile, all media were replaced with fresh ones. […]
(§3) Analysis for luciferase expression was carried out after 3 days. […] The relative light unit (RLU) was measured with a luminometer (Lumat LB 9507, EG&G Berthold) and normalized against the protein concentration as measured with a bicinchoninic acid protein assay kit (Pierce). Luciferase activity was finally expressed as RLU/mg protein ±standard deviation of at least 4 samples. […]

[2] = system: HepG2 cells; test: In vitro luciferase expression in HepG2 (Example 1); format: cell-based, human
Procedure: as §1, §2, §3

[3] = system: HEK293 cells; test: GFP transfection assay in HEK293; format: cell-based, human
Procedure: as §1, §2
For the GFP transfection assay, cells were harvested after 2 days. […] The percentage of cells expressing GFP was then determined using a flow cytometer (FACSCalibur, Becton Dickinson) from 10,000 events and reported as a mean±standard deviation of at least 4 samples. […]

[4] = system: plasmid DNA; test: Agarose gel electrophoresis DNA binding assay (Example 1); conditions: 10 mM PBS pH 7.0; for N/P ratio at which bulk electrophoretic migration of DNA is retarded: N/P = arginine residues to DNA phosphorus
Procedure: DNA binding and protection assays: Agarose gel electrophoresis was conducted to study the DNA binding ability of the peptides. The peptide/DNA complexes containing 2.5 μg of DNA per 50 μL of solution were formed at various N/P ratios. The complex solution (10 μL), together with 2 μL of loading dye (Promega), were then loaded into the wells of a 1.0 wt % agarose gel preloaded with 2 μL of ethidium bromide (per 50 mL of gel solution), and electrophoresed at 80 V for 50 minutes prior to imaging (ChemiGenius Q, Syngene).
To evaluate the ability of the peptides to fully condense DNA so as to prevent its premature degradation en route to the nuclei of cells, plasmid DNA encoding the 6.4 kb firefly luciferase (pCMV-luciferase VR1255_C) driven by the cytomegalovirus (CMV) promoter (Carl Wheeler, Vical, U.S.A.) was bound to each peptide in 10 mM phosphate-buffered saline (PBS, pH 7.0) at various N/P ratios (defined here as the molar ratio of arginine residues in the peptide to the phosphorus content in DNA). Gel electrophoresis assays were then performed.

[5] = Zeta potential of pure peptide; format: physicochemical
[6] = system: DNA; test: Kinetics of DNA capture (PicoGreen); format: binding
Procedure: Upon condensation of the DNA, however, PicoGreen becomes excluded resulting in a drop in florescent intensity. Making use of this behavior, the kinetics of the DNA capturing process was traced and quantified. At time=0, the peptide solution was dripped into the DNA solution and vortexed for ˜10 seconds. At appropriate time intervals, 10 μL of the complex solution was taken out and mixed with 990 μL of PicoGreen working solution (diluted 400 times from its stock solution with TE buffer, pH 7.3). The fluorescence emission spectrum was then recorded with a Fluorolog LFI 3751 fluorescence spectrometer (Jobin Yvon Horiba). The excitation wavelength used was 480 nm and the silts were set to 4 nm. The fluorescence area intensity at any time point expressed as a percentage of the fluorescence intensity obtained with the initial concentration of DNA (before mixing with peptide) was used to reflect the concentration of uncaptured/loosely captured DNA. A profile was plotted to trace the temporal evolution of the DNA capturing process. Blanks and background were corrected for in all calculations.
To further understand the efficiency and kinetics of DNA capture by the peptides, PicoGreen was used as a sensitive fluorescence probe. […] This behavior can be employed to trace the temporal evolution of free/loosely bound DNA in solution.

[7] = system: 4T1 cells; test: In vitro luciferase expression in 4T1 (Example 1); format: cell-based, mouse
Procedure: as §1, §2, §3

[8] = MTT cytotoxicity assay in 4T1 (Example 1); format: cell-based; conditions: mouse, 4T1 cells; read-out: cells viable at peak luciferase expression
Procedure: Cytotoxicity assay: Cells were seeded onto 96-well plates at a density of 6-10×10^3 cells/well. After 24 hours, all media were replaced with fresh ones and 10 μL of sample was introduced into each well. The sample consisted of either pure peptide or […] dissolved in the medium at the desired concentration. After 4 hours, all media were aspirated and replaced with fresh ones. Cytotoxicity analysis was carried out 3 days later by first replacing all wells with fresh media and adding 20 μL of MTT (5 mg/mL in PBS). After incubating for another 3 hours, all wells were carefully aspirated and replaced with 0.15 mL of DMSO to dissolve the internalized purple formazan crystals. The solution was homogenised and the relative colour intensity was measured with a microplate reader (PowerWave X, Bio-Tek Inc.). A test wavelength of 550 nm and a reference wavelength of 690 nm were used. Cell viability was represented by the average of (absorbance550 nm−absorbance690 nm) of the sample expressed as a percentage of the intensity of the controls ±standard deviation. Each data point was repeated at least 8 times.
For complexes of F, I and W, a peptide concentration of 0.02 and 0.10 mg/mL will approximately correspond to N/P ratio 5 and 25, respectively. For H, a peptide concentration of 0.03 and 0.09 mg/mL will approximately correspond to N/P ratio 10 and 30. […]

[9] = system: subcutaneous 4T1 breast tumors; test: In vivo luciferase expression in 4T1 tumor-bearing mice
Procedure: In vivo luciferase expression: Female Balb/c mice (Centre for Animals Resources, National University of Singapore) weighing 18-20 g were subcutaneously injected with 0.1 mL of serum-free RPMI 1640 containing 4×10^5 4T1 cells. A tumor was then allowed to develop in each mouse for 10-12 days. PEI and different formulations of I/DNA complexes were prepared as above, and 30 μl of sample containing 4 μg of DNA was injected directly into each tumor. The tumor tissues were harvested two days later. To analyse for luciferase activity, each tumor was first thoroughly homogenised in lysis buffer, followed by two further freeze-thaw cycles. The mixture was then centrifuged and assayed for its luciferase activity as described above. Expression level was given as RLU/mg protein ±standard deviation of at least 4 mice.
Finally, the in vivo gene transfection capacity of the peptides was evaluated by performing luciferase expression experiments with peptide I on mice bearing subcutaneous 4T1 breast tumors. […] This may be because the amount of DNA being delivered by the supernatant and sediment formulations was smaller. The large DNA complexes might also not be uniformly distributed in the tumor, limiting the cellular uptake of the large complexes. […]

[10] = system: HEK293, HepG2 and 4T1 cells; test: In vitro luciferase expression, all three cell lines (Example 1); format: cell-based, human, mouse; conditions: all cell lines tested
Procedure: as §1, §2, §3

Substance: FFFFFHHHHRRRRRRRR-NH2 [F, NH2—F5H4R8—CONH2]
luciferase expression level compared among the peptides [1]: highest luciferase expression level
luciferase expression level, times that of PEI [1]: 0.8 times
luciferase expression level compared among the peptides [2]: highest luciferase expression level
luciferase expression level, times that of PEI [2]: 0.2 times
proportion of cells transfected with the GFP gene, comparison [3]: transfected more HEK293 cells with the GFP gene than H

N/P ratio from which ethidium bromide is completely excluded from the condensed DNA [4]: ≥ 5
N/P ratio at which bulk electrophoretic migration of DNA is retarded [4]: 2
zeta potential of pure peptide [5]: 15.8±0.2 mV
Substance: IIIIIHHHHRRRRRRRR-NH2 [I, NH2—I5H4R8—CONH2]
quenching of PicoGreen fluorescence compared with H [6]: to a greater extent
luciferase expression level compared among the peptides ([7]; 4T1): optimal
peak luciferase expression level, times higher than PEI ([7]; 4T1 cells, PEI branched Mw 25,000): 6.4 times
viability at 4 h [8]: ~90%
gene expression in mouse breast cancer model compared with PEI [9]: much more efficiently than PEI

Substance: NH2—H4R8—CONH2
N/P ratio at which bulk electrophoretic migration of DNA is retarded [4]: 5
zeta potential of pure peptide [5]: 8.0±0.2 mV

Substance: NH2—W5H4R8—CONH2 (H-WWWWWHHHHRRRRRRRR-NH2)
gene expression level compared among the peptides [10]: lowest gene expression level

From patent US20100286069A1, “CATIONIC PEPTIDE FOR DELIVERING AN AGENT INTO A CELL” (priority 2007, published 2010)
